Legend:
[1] = system: PA-T; assay: Bacterial sensitivity towards HOSCN killing; type: cell-based, Pseudomonas aeruginosa (PA); conditions: CF sputum isolate, HOSCN flux for 2 hours, GOX/LPO/SCN system, pH 7.4
Method: (§1) FIGS. 11A-11D. […] A lactoperoxidase (LPO) system was used to generate increasing fluxes of either HOSCN or HOSeCN in presence of 400 μM of either ^−SCN or ^−SeCN. LPO in the presence of a hydrogen peroxide generating system (glucose oxidase, GOX) can convert both thiocyanate and selenocyante to their respective hypopseudohalous acid species (HOSCN and HOSeCN) that are biocides. […] Bacterial inoculums (10^6 colony forming units, CFU) were incubated with host defense system for 2 hours at room temperature and bacteria were plated on LB agar plates and cell viability was determined by dilution and counting CFUs.
(§2) LPO in the presence of a hydrogen peroxide generating system (glucose oxidase, GOX) can convert both thiocyanate and selenocyante to their respective hypopseudohalous acid species (HOSCN and HOSeCN) that are biocides. […] Bacterial inoculums (10^6 colony forming units, CFU) were incubated with host defense system for 2 hours at room temperature and bacteria were plated on LB agar plates and cell viability was determined by dilution and counting CFUs. Lethal concentrations that kill 50% of bacteria (LC50) were determined by non-linear curve fitting the data.
(§3) Bacteria were incubated for 2 hour with LPO, ^−SCN or SeCN, glucose and increasing amounts of GOX. The flux (HOX) of either HOSCN or HOSeCN was determined from standard curves of GOX/LPO and either HOSCN or HOSeCN. LC50 values were determined by curve fitting the data with nonlinear regression of log (agonist) vs normalized response.

[2] = system: AMT-9; assay: Bacterial sensitivity towards HOSCN killing; type: cell-based, Pseudomonas aeruginosa (PA); conditions: AMT-9, CF sputum isolate; HOSCN flux for 2 hours, GOX/LPO/SCN system, pH 7.4
Method: as §1, §2, §3

SMILES: N#CSO [HOSCN, hypothiocyanite]
- HOSCN IC50 [1]: 48 µM/h
- HOSCN IC50 [2]: 5 µM/h

Reference: patent publication US11986450B2, “Methods and compositions for treating infection and inflammation with selenocyanate” (National Jewish Health, priority 2017, dated 2024)
